Source: patent US9199962B2, “Substituted azaheterocycles for the treatment of cancer” (Merck Patent GmbH, priority 2011, dated 2015)
Where two headings read alike, the source gives them in different places.

Molecular target: T1, GST-FAK (N-terminal GST fusion with truncated human FAK (376-1052 (end) amino acids)) (Homo sapiens, UniProt Q05397)
T1 construct: truncated human FAK (376-1052 (end) amino acids)
Experiment: Biochemical enzyme assay for FAK activity (Caliper LC3000 mobility shift)
Conditions: 100 uM ATP, read-out: FAK IC50
Procedure: 1. Biochemical Enzyme Assays for FAK Activity
The FAK assays described here are performed on two Caliper Life Sciences systems, the LC3000 and the EZ Reader II. These provide data on enzyme activity via measurement of the relative amounts of phosphorylated or unphosphorylated fluorescently labelled substrate peptide at the end of an enzymatic reaction. These different states of peptide are resolved by applying a potential difference across the sample. The presence of the charged phosphate group on the product (as opposed to the substrate) causes different peptide mobility between the two peptides. This is visualized by excitation of the fluorescent label on the substrate and product peptides and represented as peaks within the analysis software.
In order to measure inhibitor activity of FAK, inhibitors in the Caliper Life Sciences LC3000, a TTP Mosquito liquid handling instrument is used to place 0.25 ul of the appropriate concentration of inhibitor in 100% DMSO (for a dose response curve calculation) into each well of a 384-well plate. To this reaction components are added to a final volume of 25 ul: • 0.067 ng/ul GST-FAK (N-terminal GST fusion with truncated human FAK (376-1052 (end) amino acids)) • 100 uM ATP • 1 mM DTT • 1 mM MgCl2 • 1 uM substrate peptide (sequence FITC-KGWMEDYDYVHLQGKK-(CONH2)SEQ ID NO: 1)) • 1 mM FERM peptide (sequence NH2-GATQSFIIR-COOH (SEQ ID NO: 2)) • 100 mM HEPES pH 7.5 • 0.015% Brij-35
The reaction is incubated for 90 min at 25 C, and then stopped by the addition of 70 ul of Stop buffer (100 mM HEPES pH 7.5, 0.015% Brij-35, 10 mM EDTA).
The plate is read on a Caliper LC 3000 in an Off-Chip mobility shift assay format, using the following parameters for a 12-sipper chip: screening pressure—1.9 psi, upstream voltage—3000, downstream voltage—700. These conditions cause unphosphorylated substrate and phosphorylated product peptide to resolve as separate peaks allowing direct measurement of percentage of conversion of substrate to product. The percent conversion can be plotted against concentration of inhibitor to produce a sigmoid dose response curve, from which an IC50 can be calculated using XLFit for Microsoft Excel.

T1 sequence (Q05397 376-1052): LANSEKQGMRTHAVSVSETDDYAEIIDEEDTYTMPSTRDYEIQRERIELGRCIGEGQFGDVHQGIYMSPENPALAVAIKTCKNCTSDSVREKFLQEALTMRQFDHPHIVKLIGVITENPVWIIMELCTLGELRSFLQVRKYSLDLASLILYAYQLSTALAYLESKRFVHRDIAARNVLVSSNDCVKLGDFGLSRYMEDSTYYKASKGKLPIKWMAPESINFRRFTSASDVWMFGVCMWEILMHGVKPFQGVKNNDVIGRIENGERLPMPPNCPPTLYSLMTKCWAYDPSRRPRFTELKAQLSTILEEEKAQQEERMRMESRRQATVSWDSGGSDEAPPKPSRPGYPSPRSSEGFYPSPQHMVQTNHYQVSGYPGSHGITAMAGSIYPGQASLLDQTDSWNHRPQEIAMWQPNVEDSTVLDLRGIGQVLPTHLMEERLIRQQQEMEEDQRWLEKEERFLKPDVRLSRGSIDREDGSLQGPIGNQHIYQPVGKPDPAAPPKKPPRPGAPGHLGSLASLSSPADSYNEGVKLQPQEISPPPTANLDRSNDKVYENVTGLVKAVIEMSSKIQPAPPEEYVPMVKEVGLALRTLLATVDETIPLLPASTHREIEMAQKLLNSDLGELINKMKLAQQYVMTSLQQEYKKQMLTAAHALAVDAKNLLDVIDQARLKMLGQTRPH

Row | IC50 (Table 2) [µM] | IC50 (Table 3) [µM] | SMILES | also measured
1 |  |  | Clc1cncc(-c2nccc(NCC3CC3)n2)c1 [Compound 36, [2-(5-Chloro-pyridin-3-yl)-pyrimidin-4-yl]-cyclopropylmethyl-amine] | IC50 (Table 1): 1 to 10 µM
2 |  |  | Clc1cncc(-c2nccc(NCC3CCCCC3)n2)c1 [Compound 37, [2-(5-Chloro-pyridin-3-yl)-pyrimidin-4-yl]-cyclohexylmethyl-amine] | IC50 (Table 1): 1 to 10 µM
3 |  |  | Fc1ccccc1CNc1ccnc(-c2cncc(Cl)c2)n1 [Compound 38, [2-(5-Chloro-pyridin-3-yl)-pyrimidin-4-yl]-(2-fluoro-benzyl)-amine] | IC50 (Table 1): < 0.1 µM
4 |  |  | Fc1ccc(CNc2ccnc(-c3cncc(Cl)c3)n2)cc1 [Compound 39, [2-(5-Chloro-pyridin-3-yl)-pyrimidin-4-yl]-(4-fluoro-benzyl)-amine] | IC50 (Table 1): 0.1 to 1 µM
5 |  |  | CC1(C)Cc2cccc(CNc3ccnc(-c4cncc(C(=O)N5CCOCC5)c4)n3)c2O1 [Compound 40, (5-{4-[(2,2-Dimethyl-2,3-dihydro-benzofuran-7-ylmethyl)-amino]-pyrimidin-2-yl}-pyridin-3-yl)-morpholin-4-yl-methanone] | IC50 (Table 1): > 10 µM
6 | 0.1 to 1 |  | NC(=O)CCNc1cc(NCc2ccc(F)cc2F)nc(-c2cncc(C(F)(F)F)c2)n1 [Compound 61, 3-[6-(2,4-Difluoro-benzylamino)-2-(5-trifluoromethyl-pyridin-3-yl)-pyrimidin-4-ylamino]-propionamide] | 
7 | 0.1 to 1 |  | Fc1ccc(CNc2cc(NC3CCNCC3)nc(-c3cncc(C(F)(F)F)c3)n2)c(F)c1 [Compound 66, N-(2,4-Difluoro-benzyl)-N′-piperidin-4-yl-2-(5-trifluoromethyl-pyridin-3-yl)-pyrimidine-4,6-diamine] | 
8 | 0.1 to 1 |  | OCC(Nc1ccnc(-c2cncc(C(F)(F)F)c2)n1)c1ccccc1 (stereo not drawn) [Compound 67, 2-Phenyl-2-[2-(5-trifluoromethyl-pyridin-3-yl)-pyrimidin-4-ylamino]-ethanol] | 
9 | 0.1 to 1 |  | CC(Nc1ccnc(-c2cncc(C(F)(F)F)c2)n1)c1ccc(F)cc1 (stereo not drawn) [Compound 68, [1-(4-Fluoro-phenyl)-ethyl]-[2-(5-trifluoromethyl-pyridin-3-yl)-pyrimidin-4-yl]-amine] | 
10 | < 0.1 |  | CC(=O)NCCNC(=O)c1cc(NCc2ccc(F)cc2F)nc(-c2cncc(C(F)(F)F)c2)n1 [Compound 69, 6-(2,4-Difluoro-benzylamino)-2-(5-trifluoromethyl-pyridin-3-yl)-pyrimidine-4-carboxylic acid (2-acetylamino-ethyl)-amide] | 
11 | < 0.1 |  | O=C(NCCc1cccnc1)c1cc(NCc2ccc(F)cc2F)nc(-c2cncc(C(F)(F)F)c2)n1 [Compound 70, 6-(2,4-Difluoro-benzylamino)-2-(5-trifluoromethyl-pyridin-3-yl)-pyrimidine-4-carboxylic acid (2-pyridin-3-yl-ethyl)-amide] | 
12 | < 0.1 |  | O=C(NCCn1cccn1)c1cc(NCc2ccc(F)cc2F)nc(-c2cncc(C(F)(F)F)c2)n1 [Compound 71, 6-(2,4-Difluoro-benzylamino)-2-(5-trifluoromethyl-pyridin-3-yl)-pyrimidine-4-carboxylic acid (2-pyrazol-1-yl-ethyl)-amide] | 
13 | 0.1 to 1 |  | Cc1nc(CCNC(=O)c2cc(NCc3ccc(F)cc3F)nc(-c3cncc(C(F)(F)F)c3)n2)cs1 [Compound 73, 6-(2,4-Difluoro-benzylamino)-2-(5-trifluoromethyl-pyridin-3-yl)-pyrimidine-4-carboxylic acid [2-(2-methyl-thiazol-4-yl)-ethyl]-amide] | 
14 | 0.1 to 1 |  | CCc1noc(CCNC(=O)c2cc(NCc3ccc(F)cc3F)nc(-c3cncc(C(F)(F)F)c3)n2)n1 [Compound 74, 6-(2,4-Difluoro-benzylamino)-2-(5-trifluoromethyl-pyridin-3-yl)-pyrimidine-4-carboxylic acid [2-(3-ethyl-[1,2,4]oxadiazol-5-yl)-ethyl]-amide] | 
15 | 0.1 to 1 |  | O=C(NCCN1CCNC1=O)c1cc(NCc2ccc(F)cc2F)nc(-c2cncc(C(F)(F)F)c2)n1 [Compound 75, 6-(2,4-Difluoro-benzylamino)-2-(5-trifluoromethyl-pyridin-3-yl)-pyrimidine-4-carboxylic acid [2-(2-oxo-imidazolidin-1-yl)-ethyl]-amide] | 
16 | 0.1 to 1 |  | CNC(=O)[C@H](NC(=O)c1cc(NCc2ccc(F)cc2F)nc(-c2cncc(C(F)(F)F)c2)n1)C(C)C [Compound 76, 6-(2,4-Difluoro-benzylamino)-2-(5-trifluoromethyl-pyridin-3-yl)-pyrimidine-4-carboxylic acid ((R)-2-methyl-1-methylcarbamoyl-propyl)-amide] | 
17 |  | 0.1 to 1 | Nc1ncccc1-c1nccc(NCc2ccccc2F)n1 [Compound 78, 2-(2-Aminopyridin-3-yl)-N-(2-fluorobenzyl)pyrimidin-4-amine] | 
18 |  | > 10 | Nc1ncccc1-c1nccc(NCc2cccc(F)c2)n1 [Compound 79, 2-(2-Aminopyridin-3-yl)-N-(3-fluorobenzyl)pyrimidin-4-amine] | 

Row | IC50 (Table 2) [µM] | IC50 (Table 3) [µM] | SMILES | also measured
19 |  | 1 to 10 | Nc1ncccc1-c1nccc(NCc2ccc(F)cc2)n1 [Compound 80, 2-(2-Aminopyridin-3-yl)-N-(4-fluorobenzyl)pyrimidin-4-amine] | 
20 |  | 1 to 10 | Nc1ncccc1-c1nccc(NCc2ccccc2)n1 [Compound 81, 2-(2-Aminopyridin-3-yl)-N-benzylpyrimidin-4-amine] | 
21 |  | 1 to 10 | Cc1ccccc1CNc1ccnc(-c2cccnc2N)n1 [Compound 82, 2-(2-Aminopyridin-3-yl)-N-(2-methylbenzyl)pyrimidin-4-amine] | 
22 |  | 1 to 10 | COc1ccccc1CNc1ccnc(-c2cccnc2N)n1 [Compound 83, 2-(2-Aminopyridin-3-yl)-N-(2-methoxybenzyl)pyrimidin-4-amine] | 
23 |  | 1 to 10 | Nc1ncccc1-c1nccc(NCc2ccccc2OC(F)(F)F)n1 [Compound 84, 2-(2-Aminopyridin-3-yl)-N-[2-(trifluoromethoxy)benzyl]pyrimidin-4-amine] | 
24 |  | 1 to 10 | Nc1ncccc1-c1nccc(NCc2cccc(F)c2F)n1 [Compound 85, 2-(2-Aminopyridin-3-yl)-N-(2,3-difluorobenzyl)pyrimidin-4-amine] | 
25 |  | 0.1 to 1 | Nc1ncccc1-c1nccc(NCc2ccccc2Cl)n1 [Compound 86, 2-(2-Aminopyridin-3-yl)-N-(2-chlorobenzyl)pyrimidin-4-amine] | 
26 |  | 1 to 10 | CS(=O)(=O)c1ccccc1CNc1ccnc(-c2cccnc2N)n1 [Compound 87, 2-(2-Aminopyridin-3-yl)-N-[2-(methylsulfonyl)benzyl]pyrimidin-4-amine] | 
27 |  | > 10 | CN(c1ncccc1CNc1ccnc(-c2cccnc2N)n1)S(C)(=O)=O [Compound 88, N-[3-({[2-(2-Aminopyridin-3-yl)pyrimidin-4-yl]amino}methyl)pyridin-2-yl]-N-methylmethane-sulfonamide] | 
28 |  | 1 to 10 | CS(=O)(=O)c1cccc(CNc2ccnc(-c3cccnc3N)n2)c1 [Compound 90, 2-(2-Aminopyridin-3-yl)-N-[3-(methylsulfonyl)benzyl]pyrimidin-4-amine] | 
29 |  | 1 to 10 | CN(C)c1ccccc1CNc1ccnc(-c2cccnc2N)n1 [Compound 91, 2-(2-Aminopyridin-3-yl)-N-[2-(dimethylamino)benzyl]pyrimidin-4-amine] | 
30 |  | > 10 | Cc1ccc(CNc2ccnc(-c3cccnc3N)n2)cc1 [Compound 92, 2-(2-Aminopyridin-3-yl)-N-(4-methylbenzyl)pyrimidin-4-amine] | 
31 |  | 0.1 to 1 | Fc1ccccc1CNc1ccnc(-c2cccnc2)n1 [Compound 93, N-(2-Fluorobenzyl)-2-pyridin-3-ylpyrimidin-4-amine] | 
32 |  | 1 to 10 | Nc1ccc(-c2nccc(NCc3ccccc3C(F)(F)F)n2)cn1 [Compound 94, 2-(6-Aminopyridin-3-yl)-N-[2-(trifluoromethyl)benzyl]pyrimidin-4-amine] | 
33 |  | > 10 | Cc1cccc(CNc2ccnc(-c3cccnc3N)n2)c1 [Compound 95, 2-(2-Aminopyridin-3-yl)-N-(3-methylbenzyl)pyrimidin-4-amine] | 
34 |  | > 10 | Nc1ncccc1-c1nccc(NCc2ccc(C(F)(F)F)cc2)n1 [Compound 96, 2-(2-Aminopyridin-3-yl)-N-[4-(trifluoromethyl)benzyl]pyrimidin-4-amine] | 
35 |  | > 10 | COc1ccc(CNc2ccnc(-c3cccnc3N)n2)cc1 [Compound 97, 2-(2-Aminopyridin-3-yl)-N-(4-methoxybenzyl)pyrimidin-4-amine] | 
36 |  | > 10 | CS(=O)(=O)c1ccc(CNc2ccnc(-c3cccnc3N)n2)cc1 [Compound 99, 2-(2-Aminopyridin-3-yl)-N-[4-(methylsulfonyl)benzyl]pyrimidin-4-amine] | 
